Values of other authors as cited in patent publication US20030171329A1, “Stable compositions comprising tezacitabine” (priority 2002, published 2003).
Read-outs that look alike come from different tables or passages of the source.

Columns and labels:
[1] = cited from earlier work
ribonucleotide reductase = target: T1, ribonucleotide reductase (Homo sapiens, UniProt P23921); settings: cited from earlier work
T1 sequence (P23921 1-792): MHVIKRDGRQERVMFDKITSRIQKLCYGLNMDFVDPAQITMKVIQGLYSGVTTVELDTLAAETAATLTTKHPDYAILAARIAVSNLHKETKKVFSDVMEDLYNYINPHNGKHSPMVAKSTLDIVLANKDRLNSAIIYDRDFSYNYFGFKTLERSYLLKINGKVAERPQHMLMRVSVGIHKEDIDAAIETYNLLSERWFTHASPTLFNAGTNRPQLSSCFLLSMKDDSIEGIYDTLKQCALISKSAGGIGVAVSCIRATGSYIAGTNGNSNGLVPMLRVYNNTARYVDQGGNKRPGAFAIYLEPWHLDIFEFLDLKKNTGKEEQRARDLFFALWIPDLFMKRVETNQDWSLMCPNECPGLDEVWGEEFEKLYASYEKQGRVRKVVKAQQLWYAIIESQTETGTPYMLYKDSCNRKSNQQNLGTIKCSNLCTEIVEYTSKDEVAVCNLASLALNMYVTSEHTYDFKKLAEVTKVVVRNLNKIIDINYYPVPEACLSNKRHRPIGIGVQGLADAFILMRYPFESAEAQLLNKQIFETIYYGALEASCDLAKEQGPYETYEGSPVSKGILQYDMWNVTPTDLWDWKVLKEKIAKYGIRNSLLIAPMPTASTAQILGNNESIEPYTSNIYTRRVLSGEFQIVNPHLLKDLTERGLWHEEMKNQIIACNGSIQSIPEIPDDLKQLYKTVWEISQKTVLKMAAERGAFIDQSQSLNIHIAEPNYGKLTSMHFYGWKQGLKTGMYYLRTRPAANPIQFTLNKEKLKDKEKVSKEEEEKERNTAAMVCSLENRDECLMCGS
T1 sequence (P31350 1-389 partner): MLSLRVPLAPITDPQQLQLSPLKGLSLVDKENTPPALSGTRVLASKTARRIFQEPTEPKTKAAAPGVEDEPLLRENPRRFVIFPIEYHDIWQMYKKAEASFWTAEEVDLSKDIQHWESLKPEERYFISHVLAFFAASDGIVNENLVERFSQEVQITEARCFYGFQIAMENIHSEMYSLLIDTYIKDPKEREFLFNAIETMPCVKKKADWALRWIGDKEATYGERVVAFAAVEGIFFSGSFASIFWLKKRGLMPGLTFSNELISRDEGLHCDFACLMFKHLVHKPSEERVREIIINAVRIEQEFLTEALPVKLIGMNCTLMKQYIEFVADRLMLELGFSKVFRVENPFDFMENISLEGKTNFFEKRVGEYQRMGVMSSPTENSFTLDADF

[2] = tested on: replicating strand of DNA; settings: incorporated directly into the replicating strand of DNA; cited from earlier work

In the case of Nc1ccn([C@@H]2O[C@H](CO)[C@@H](O)[C@@H]2O)c(=O)n1 [Cytarabine], the “pH of best stability” value ([1]; aqueous solution) is given as “most stable at neutral pH (7-8)”.

For Nc1ccn([C@@H]2O[C@H](CO)[C@@H](O)C2(F)F)c(=O)n1 [Gemcitabine], the stability in words ([1]; acid conditions (low pH)) is given as “relatively stable” and the stability in words ([1]; high pH) is given as “considerably less stable”.

For Nc1ccn(C2OC(COP(=O)(O)OP(=O)(O)O)C(O)C2=CF)c(=O)n1 (centres unmarked) [tezacitabine diphosphate], the “effect on ribonucleotide reductase” value (ribonucleotide reductase) is listed as “inhibits ribonucleotide reductase”.

For Nc1ccn(C2OC(COP(=O)(O)OP(=O)(O)OP(=O)(O)O)C(O)C2=CF)c(=O)n1 (centres unmarked) [tezacitabine triphosphate], the “effect on DNA synthesis” value [2] is given as “causes premature chain termination”.
